This is an account of results in US7456210B2, “Benzyloxy derivatives” (Hoffmann-La Roche Inc., priority 2004, dated 2008).

Each structure is given as a SMILES string.

The target in the experiment is T1, human MAO-B (Homo sapiens, UniProt P27338).
T1 construct: expressed in transfected cells; host or cells: EBNA cells (transient transfection); cell membranes used
T1 sequence (P27338 1-520): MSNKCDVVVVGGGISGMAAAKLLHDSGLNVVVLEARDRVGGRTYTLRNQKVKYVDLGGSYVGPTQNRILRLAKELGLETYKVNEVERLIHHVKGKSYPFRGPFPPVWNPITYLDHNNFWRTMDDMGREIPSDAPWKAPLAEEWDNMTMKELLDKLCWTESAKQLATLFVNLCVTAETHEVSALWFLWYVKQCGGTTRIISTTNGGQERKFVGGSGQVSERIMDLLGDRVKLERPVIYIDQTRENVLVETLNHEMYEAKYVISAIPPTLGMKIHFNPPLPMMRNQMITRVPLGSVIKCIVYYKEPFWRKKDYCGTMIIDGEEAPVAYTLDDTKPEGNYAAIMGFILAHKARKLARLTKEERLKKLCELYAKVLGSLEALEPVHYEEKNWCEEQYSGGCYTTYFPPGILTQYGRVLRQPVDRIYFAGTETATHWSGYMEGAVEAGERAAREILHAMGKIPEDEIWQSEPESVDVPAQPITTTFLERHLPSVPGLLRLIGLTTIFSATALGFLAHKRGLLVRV
In words: MAO-B enzymatic activity, spectrophotometric Amplex Red assay on membranes of transfected EBNA cells. The class given is biochemical. Conditions: membranes of EBNA cells transfected with human MAO-B; substrate tyramine; 30 min preincubation at 37° C., pH 7.4. How it is done: The cDNA's encoding human MAO-A and MAO-B were transiently transfected into EBNA cells using the procedure described by Schlaeger and Christensen [Cytotechnology 15:1-13 (1998)]. After transfection, cells were homogenised by means of a Polytron homogenizer in 20 mM Tris HCl buffer, pH 8.0, containing 0.5 mM EGTA and 0.5 mM phenylmethanesulfonyl fluoride. Cell membranes were obtained by centrifugation at 45,000×g and, after two rinsing step with 20 mM Tris HCl buffer, pH 8.0, containing 0.5 mM EGTA, membranes were eventually re-suspended in the above buffer and aliquots stored at −80° C. until use.
MAO-A and MAO-B enzymatic activity was assayed in 96-well-plates using a spectro-photometric assay adapted from the method described by Zhou and Panchuk-Voloshina [Analytical Biochemistry 253:169-174 (1997)]. Briefly, membrane aliquots were incubated in 0.1 M potassium phosphate buffer, pH 7.4, for 30 min at 37° C. with or without various concentrations of the compounds. After this period, the enzymatic reaction was started by the addition of the MAO substrate tyramine together with 1 U/ml horse-radish peroxidase (Roche Biochemicals) and 80 μM N-acetyl-3,7,-dihydroxyphenoxazine (Amplex Red, Molecular Probes). The samples were further incubated for 30 min at 37° C. in a final volume of 200 μl and absorbance was then determined at a wavelength of 570 nm using a SpectraMax plate reader (Molecular Devices). Background (non-specific) absorbance was determined in the presence of 10 μM clorgyline for MAO-A or 10 μM L-deprenyl for MAO-B.
IC50 values were determined from inhibition curves obtained using nine inhibitor concentrations in duplicate, by fitting data to a four parameter logistic equation using a computer program.
Molecule `N=C(NO)[C@@H]1CC(=O)N(c2ccc(OCc3cccc(F)c3)cc2)C1` [Example 3, (R)-1-[4-(3-Fluoro-benzyloxy)-phenyl]-N-hydroxy-5-oxo-pyrrolidine-3-carboxamidine] yielded an IC50 of 0.018 µM.

For `Cc1nc([C@@H]2CC(=O)N(c3ccc(OCc4cccc(F)c4)cc3)C2)no1` [Example 4, (R)-1-[4-(3-Fluoro-benzyloxy)-phenyl]-4-(5-methyl-[1,2,4]oxadiazol-3-yl)-pyrrolidin-2-one], the IC50 came to 0.016 µM. For the molecule `CCOC(=O)c1nc([C@@H]2CC(=O)N(c3ccc(OCc4cccc(F)c4)cc3)C2)no1` [Example 5, 3-{(R)-1-[4-(3-Fluoro-benzyloxy)-phenyl]-5-oxo-pyrrolidin-3-yl}-[1,2,4]oxadiazole-5-carboxylic acid ethyl ester], the IC50 is 0.043 µM. Under `NC(=O)c1nc([C@@H]2CC(=O)N(c3ccc(OCc4cccc(F)c4)cc3)C2)no1` [Example 6, 3-{(R)-1-[4-(3-Fluoro-benzyloxy)-phenyl]-5-oxo-pyrrolidin-3-yl}-[1,2,4]oxadiazole-5-carboxylic acid amide] stands 0.429 µM; under `Cc1nc([C@@H]2CC(=O)N(c3ccc(OCc4cccc(F)c4)cc3)C2)cs1` [Example 8, (R)-1-[4-(3-Fluoro-benzyloxy)-phenyl]-4-(2-methyl-thiazol-4-yl)-pyrrolidin-2-one], 0.387 µM; under `O=C1C[C@@H](c2c[nH]cn2)CN1c1ccc(OCc2cccc(F)c2)cc1` [Example 9, (R)-1-[4-(3-Fluoro-benzyloxy)-phenyl]-4-(1H-imidazol-4-yl)-pyrrolidin-2-one], 0.187 µM.

In turn, `CON(C)C(=O)[C@@H]1CC(=O)N(c2ccc(OCc3cccc(F)c3)cc2)C1` [Example 10, (R)-1-[4-(3-Fluoro-benzyloxy)-phenyl]-5-oxo-pyrrolidine-3-carboxylic acid methoxy-methyl-amide] showed an IC50 of 0.392 µM. Compared with the last molecule, the IC50 is about 2.1-fold higher. The result for `CC(=O)[C@@H]1CC(=O)N(c2ccc(OCc3cccc(F)c3)cc2)C1` [Example 11, (R)-4-Acetyl-1-[4-(3-fluoro-benzyloxy)-phenyl]-pyrrolidin-2-one] reads 0.011 µM.
